Values of other authors as cited in patent US20040067887A1, “Human VNO receptor (R1)” (priority 2000, published 2004).

What was measured:
human brain = conditions: human volunteers; delivered non-specifically to the nasal cavity; no detectable odor (Sobel et al. 1999)
human VNO = conditions: for physiological responses after administration to the human VNO: administered to the human VNO

| SMILES | activation of brain regions detected by fMRI (human brain) | site specificity of physiological responses in vivo (human VNO; human subjects, VNO versus olfactory or respiratory epithelium (Monti-Bloch et al. 1994)) | physiological responses after administration to the human VNO (human VNO) |
| --- | --- | --- | --- |
| CC(=O)Oc1ccc2c(c1)CC[C@@H]1[C@@H]2CC[C@]2(C)C=CC[C@@H]12 [PH15, estra-1,3,5(10),16-tetraen-3yl acetate] | dose-dependent activation of the anterior medial thalamus, the inferior frontal gyrus, and other regions of the human brain | induces physiological responses in vivo only when applied specifically to the VNO | – |
| C[C@@]12C=CC[C@H]1[C@@H]1CCC3=CC(=O)CC[C@]3(C)[C@H]1CC2 [androsta-4,16-dien-3-one] | – | – | induce bradycardia, bradypnea, increases in core body temperature, and other physiological responses |
| C[C@@]12C=CC[C@H]1[C@@H]1CCc3cc(O)ccc3[C@H]1CC2 [estra-1,3,5(10),16-tetraen-3-ol] | – | – | induce bradycardia, bradypnea, increases in core body temperature, and other physiological responses |
